# Laboratory results as given in PMC5132298 (PLoS ONE, 2016).
# Legend:
# [1] = test system: S. cerevisiae AD3Δ overexpressing ScErg11p6×His Y140F, native ERG11 deleted; assay: MIC50 broth microdilution, strain overexpressing ScErg11p6×His Y140F; type: cell-based, Saccharomyces cerevisiae; details: for fold reduction in susceptibility in Y140F mutant strain: MIC50 Y140F strain versus AD3Δ wild type overexpressing strain
# Procedure: (§1) The susceptibility to azole compounds of S. cerevisiae AD3Δ strains overexpressing Erg11p6×His wild type and Y140F/H, but with the native ERG11 deleted, as well as the host strain (AD2Δ) which retained the wild type ERG11 (S2 Table), were measured as MIC50 values (Table 1). […] PTZ has been reported to be a prodrug for DPZ [27]. […] There was a 3.3 fold (0.28 ± 0.02 μM) and a 4.3 fold (1.2 ± 0.2 μM) reduction in susceptibility to S-PTZ in the Y140F and Y140H mutant strains respectively. There was only a 2 fold reduction in susceptibility to R-PTZ in the Y140H mutant strain with no change seen in the Y140F strain. The PTZ metabolite, S-DPZ produced a 4.6 fold (0.073 ± 0.016 μM) and 3 fold (0.048 ± 0.009 μM) reduction is susceptibility against the Y140F and Y140H mutant strains respectively. […] Again we observed 8.3 fold (3.3 ± 0.7 μM) and 4 fold (1.6 ± 0.5 μM) reduction in susceptibility to FQZ in the Y140F and Y140H mutant strains respectively.
# (§2) The susceptibilities of strains overexpressing wild type ScErg11p6×His and ScErg11p6×His Y140F/H to CYP51 inhibitors were measured as MIC50 values using broth microdilution assays as described previously.[21] The MIC50s were defined as the concentration of drug required for 50% growth inhibition compared to no drug controls.
# [2] = molecular target: T1, ScErg11p6×His (S. cerevisiae lanosterol 14α-demethylase) (Saccharomyces cerevisiae, UniProt P10614); assay: Type II binding (difference spectra) to affinity purified ScErg11p6×His; details: for [Azole]0.5: azole concentration giving half ΔAmax, 1 µM ScErg11p6×His; for type of binding (difference spectra): azole up to 2 μM, 1 μM ScErg11p6×His; for Induced spectral shift on ligand binding Wavelength: Soret peak, (-) indicates no significant change in Soret peak wavelength; for mode of inhibition: ScErg11p6×His
# T1 construct: Crystal structures of the full length S. cerevisiae lanosterol 14α-demethylase (ScErg11p6×His); 6×His (hexahistidine); made in house; host or cells: Saccharomyces cerevisiae (AD3Δ overexpression strain, native ERG11 deleted)
# T1 sequence (P10614 whole entry): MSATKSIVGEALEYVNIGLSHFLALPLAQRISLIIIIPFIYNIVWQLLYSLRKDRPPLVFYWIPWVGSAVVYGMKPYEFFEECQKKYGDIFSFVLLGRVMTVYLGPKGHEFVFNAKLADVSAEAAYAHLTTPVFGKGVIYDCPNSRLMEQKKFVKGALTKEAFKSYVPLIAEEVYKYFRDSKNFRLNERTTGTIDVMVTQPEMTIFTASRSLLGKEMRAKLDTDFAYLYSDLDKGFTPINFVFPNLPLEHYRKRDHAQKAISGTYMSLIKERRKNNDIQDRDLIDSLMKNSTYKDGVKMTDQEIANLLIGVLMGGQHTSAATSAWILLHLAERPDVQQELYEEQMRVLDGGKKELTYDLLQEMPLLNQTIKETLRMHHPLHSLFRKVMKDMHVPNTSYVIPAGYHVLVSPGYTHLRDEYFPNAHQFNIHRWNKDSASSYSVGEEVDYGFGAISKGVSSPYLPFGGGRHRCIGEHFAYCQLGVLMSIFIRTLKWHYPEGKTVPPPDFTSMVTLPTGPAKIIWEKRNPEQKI
# Procedure: Type II azole binding is characterised by a shift of the Soret peak from 417 nm to 421–424 nm in ScErg11p6×His and other cytochrome P450s. The type II difference spectra were used to detect and quantitate binding of the inhibitors S-TBZ, R-TBZ, S-PTZ, R-PTZ, S-DPZ, R-DPZ, S-oxo-PTZ and R-oxo-PTZ, FQZ, and PRZ using Ni-NTA affinity purified wild type ScErg11p6×His preparations at 1 μM. Spectral shifts, [Azole]0.5 values, Hill coefficients as well as Type II difference spectra binding curves are shown in S3 Table (selected spectra shown in S2 Fig) and Fig 6, respectively.
# Samples of Ni-NTA-agarose affinity purified ScErg11p6×His were eluted with 40 mM histidine instead of imidazole as described by Warrilow et al.. Samples were washed free of the histidine and concentrated by centrifugal filtration using a 50 kDa molecular-weight cut-off Amicon Ultra-4 centrifugal filter (Millipore) to give protein with a Soret peak at 417 nm. Carbon monoxide binding was used to determine the concentration of functional cytochrome P450 for drug binding studies as described previously based on the protocol described by Guengerich et al. Saturation curves for the binding of type II ligands were determined by obtaining difference spectra for functional enzyme at 1 μM as described previously. […] All calculations were carried out using GraphPad Prism 6 Software (GraphPad Prism, San Diego, CA). [Azole]0.5 values were defined as the concentration of the azole drug that gave half ΔAmax.
# Hill coefficients and Kd values were obtained by applying the Hill equation as described in Materials and methods. (-) indicates no significant change in Soret peak wavelength on exposure to the ligand. The data presented is a representative set
# [3] = test system: S. cerevisiae AD3Δ overexpressing ScErg11p6×His wild type, native ERG11 deleted; assay: MIC50 broth microdilution, AD3Δ strain overexpressing wild type ScErg11p6×His; type: cell-based, Saccharomyces cerevisiae; details: for fold more active than the R enantiomer (MIC50): S versus R enantiomer, MIC50 values for AD3Δ strains
# Procedure: as §1, §2
# [4] = test system: S. cerevisiae AD2Δ host strain (native ERG11 retained); assay: MIC50 broth microdilution, AD2Δ host strain with native ERG11 retained; type: cell-based, Saccharomyces cerevisiae
# Procedure: as §1, §2
# [5] = test system: S. cerevisiae AD3Δ overexpressing ScErg11p6×His Y140H, native ERG11 deleted; assay: MIC50 broth microdilution, strain overexpressing ScErg11p6×His Y140H; type: cell-based, Saccharomyces cerevisiae; details: for fold reduction in susceptibility in Y140H mutant strain: MIC50 Y140H strain versus AD3Δ wild type overexpressing strain
# Procedure: as §1, §2
# [6] = Y140F, ScErg11p6×His Y140F overexpressed from PDR5 locus, native ERG11 deleted, mean ± standard error
# [7] = AD3Δ, ScErg11p6×His overexpressed from PDR5 locus, native ERG11 deleted, mean ± standard error
# [8] = AD2Δ host, native ERG11 retained, mean ± standard error
# [9] = Y140H, ScErg11p6×His Y140H overexpressed from PDR5 locus, native ERG11 deleted, mean ± standard error
Compound,fold reduction in susceptibility in Y140F mutant strain [1] [fold],MIC50 ([1]; Saccharomyces cerevisiae) [µM],Kd [2] [nM],[Azole]0.5 [2] [µM],type of binding (difference spectra) [2],MIC50 ([3]; Saccharomyces cerevisiae) [µM],MIC50 ([4]; Saccharomyces cerevisiae) [µM],fold reduction in susceptibility in Y140H mutant strain [5] [fold],MIC50 ([5]; Saccharomyces cerevisiae) [µM],"MIC50 [1, 6] [µM]",Induced spectral shift on ligand binding Wavelength [2],"MIC50 [3, 7] [µM]","MIC50 [4, 8] [µM]","MIC50 [5, 9] [µM]",further results
"CC(C)(C)[C@@](O)(CCc1ccc(Cl)cc1)Cn1cncn1 [S-Tebuconazole, S-tebuconazole]",8.7,0.64 ± 0.11,115 ± 44,0.33,type II binding,0.073 ± 0.015,0.0197 ± 0.0003,11.9,0.87 ± 0.06,,,,,,fold more active than the R enantiomer (MIC50) [3]: 15 fold
"O[C@@](Cc1ccccc1Cl)(Cn1cncn1)C1(Cl)CC1 [S-Prothioconazole-desthio, S-prothioconazole-desthio]",4.6,0.073 ± 0.016,102 ± 45,0.42,type II binding,0.0157 ± 0.0003,0.006 ± 0.001,3,0.048 ± 0.009,,,,,,fold more active than the R enantiomer (MIC50) [3]: 200 fold
"O=c1[nH]cnn1CC(O)(Cc1ccccc1Cl)C1(Cl)CC1 (stereo not drawn) [R-Oxo-prothioconazole, R-oxo-prothioconazole]",,,,,neither type I nor type II binding,,,,,87 ± 7,417(-) nm,80 ± 2,75.0 ± 3.0,95 ± 5,
"O=c1[nH]cnn1CC(O)(Cc1ccccc1Cl)C1(Cl)CC1 (stereo not drawn) [S-Oxo-prothioconazole, S-oxo-prothioconazole]",,,,,neither type I nor type II binding,,,,,87 ± 7,417(-) nm,84 ± 3,75.0 ± 0.0,97 ± 3,
"O[C@](Cc1ccccc1Cl)(Cn1cncn1)C1(Cl)CC1 [R-Prothioconazole-desthio, R-prothioconazole-desthio]",2.3,7.5,54 ± 31,0.33,type II binding,3.2 ± 0.2,0.47 ± 0.05,2.3,7.5,,,,,,
"CC(C)(C)C(O)(CCc1ccc(Cl)cc1)Cn1cncn1 (stereo not drawn) [TBZ, tebuconazole]",,,,,,,,,,,417 nm to ~421,,,,mode of inhibition [2]: non-competitive inhibitors
"CCCN(CCOc1c(Cl)cc(Cl)cc1Cl)C(=O)n1ccnc1 [Prochloraz, prochloraz]",2.3,4.3 ± 0.8,27 ± 24,0.30,type II binding,1.9 ± 0.5,0.25 ± 0.02,3.5,6.7 ± 0.7,,,,,,mode of inhibition [2]: non-competitive inhibitors; Induced spectral shift on ligand binding Wavelength ([2]; listed as PRZ): 417 nm to ~421
"CC(C)(C)[C@](O)(CCc1ccc(Cl)cc1)Cn1cncn1 [R-Tebuconazole, R-tebuconazole]",,2 ± 0.2,65 ± 35,0.30,type II binding,1.1 ± 0.3,0.12,,5.2 ± 1.3,,,,,,
"O=c1c2cc(F)ccc2nc(-n2cncn2)n1-c1ccc(Cl)cc1Cl [Fluquinconazole, fluquinconazole]",8.3,3.3 ± 0.7,15 ± 21,0.31,type II binding,0.4 ± 0.05,0.17 ± 0.02,4,1.6 ± 0.5,,,,,,mode of inhibition [2]: non-competitive inhibitors; Induced spectral shift on ligand binding Wavelength ([2]; listed as FQZ): 417 nm to ~421
"CC1COC(Cn2cncn2)(c2ccc(Oc3ccc(Cl)cc3)cc2Cl)O1 (stereo not drawn) [Difenoconazole, difenoconazole]",5.2,0.243 ± 0.003,,,,0.047 ± 0.009,0.0147 ± 0.0003,5,0.237 ± 0.003,,,,,,
"OC(Cc1ccccc1Cl)(Cn1nc[nH]c1=S)C1(Cl)CC1 (stereo not drawn) [S-Prothioconazole, S-prothioconazole]",,,,,,,,,,0.93 ± 0.0,417 (-) nm,0.28 ± 0.02,0.077 ± 0.003,1.2 ± 0.2,fold more active than the R enantiomer (MIC50) [3]: 57 fold; fold reduction in susceptibility in Y140H mutant strain ([5]; listed as S-PTZ): 4.3 fold
"O=c1[nH]cnn1CC(O)(Cc1ccccc1Cl)C1(Cl)CC1 (stereo not drawn) [oxo-PTZ, oxo-prothioconazole]",,,,,,,,,,,absence of a spectral shift,,,,
"OC(Cc1ccccc1Cl)(Cn1nc[nH]c1=S)C1(Cl)CC1 (stereo not drawn) [R-Prothioconazole, R-prothioconazole]",,,,,,,,,,16 ± 4,417 (-) nm,16 ± 3,5.2 ± 1.3,31 ± 4,fold reduction in susceptibility in Y140F mutant strain ([1]; listed as R-PTZ): no change; fold reduction in susceptibility in Y140H mutant strain ([5]; listed as R-PTZ): 2 fold
